Data from patent US9701664B2, “Fused 1,4-dihydrodioxin derivatives as inhibitors of heat shock transcription factor 1” (Cancer Research Technology Limited, priority 2013, dated 2017).

What was measured:
U2OS cells = experiment: Titre Blue cell viability assay, U2OS cells; format: cell-based; settings: Homo sapiens, U2OS
HSP72 in U2OS cells = experiment: Cell-based ELISA (Cellisa) assay, U2OS cells: inhibition of 17-AAG-induced HSP72; settings: Homo sapiens; U2OS cells (Examples 1-168)

Row | Structure (SMILES) | IC50 (U2OS cells) | IC50 (HSP72 in U2OS cells)
1 | Cc1ccc(NC(=O)c2ccc3c(c2)OCCO3)cc1NC(=O)c1ccc2nc(OCCN3CCCC3C)ccc2c1 (stereo not drawn) [Example 61, N-(5-(2,3-dihydrobenzo[b][1,4]dioxine-6-carboxamido)-2-methylphenyl)-2-(2-(2-methylpyrrolidin-1-yl)ethoxy)quinoline-6-carboxamide] | 18 nM | 16 nM
2 | Cc1ccc(NC(=O)c2ccc3c(c2)OCCO3)cc1NC(=O)c1ccc2nc(N(C)CCC(=O)O)ccc2c1 [Example 163, 3-((6-((5-(2,3-dihydrobenzo[b][1,4]dioxine-6-carboxamido)-2-methylphenyl)carbamoyl)quinolin-2-yl)(methyl)amino)propanoic acid] | 1850 nM | 1130 nM
3 | Cc1ccc(NC(=O)c2ccc3c(c2)OCCO3)cc1NC(=O)c1cnc2[nH]cnc2c1 [Example 92, N-(5-(2,3-dihydrobenzo[b][1,4]dioxine-6-carboxamido)-2-methylphenyl)-3H-imidazo[4,5-b]pyridine-6-carboxamide] | 3280 nM | 4410 nM
4 | Cc1ccc(NC(=O)c2ccc3c(c2)OCCO3)cc1NC(=O)c1ccc2nc(OCCN3CCCC(F)C3)ccc2c1 (stereo not drawn) [Example 57, N-(5-(2,3-dihydrobenzo[b][1,4]dioxine-6-carboxamido)-2-methylphenyl)-2-(2-(3-fluoropiperidin-1-yl)ethoxy)quinoline-6-carboxamide] | 31 nM | 37 nM
5 | COc1ccc(C(=O)Nc2cc(NC(=O)c3ccc4c(c3)OCCO4)ccc2C)cc1 [Example 27, N-(3-(4-methoxybenzamido)-4-methylphenyl)-2,3-dihydrobenzo[b][1,4]dioxine-6-carboxamide] | 106 nM | 371 nM
6 | Cc1cc(NCCN(C)C)c2cc(C(=O)Nc3cc(NC(=O)c4ccc5c(c4)OCCO5)ccc3C)ccc2n1 [Example 110, N-(5-(2,3-dihydrobenzo[b][1,4]dioxine-6-carboxamido)-2-methylphenyl)-4-(2-(dimethylamino)ethylamino)-2-methylquinoline-6-carboxamide] | 168 nM | 410 nM
7 | COCc1ccc(NC(=O)c2ccc3c(c2)OCCO3)cc1NC(=O)c1ccc2nc(C)ccc2c1 [Example 166, N-(5-(2,3-dihydrobenzo[b][1,4]dioxine-6-carboxamido)-2-(methoxymethyl)phenyl)-2-methylquinoline-6-carboxamide] | 68 nM | 298 nM
8 | Cc1ccc(NC(=O)c2ccc3c(c2)OCCO3)cc1NC(=O)c1ccc2nc(COCC3CCCO3)ccc2c1 (stereo not drawn) [Example 146, N-(5-(2,3-dihydrobenzo[b][1,4]dioxine-6-carboxamido)-2-methylphenyl)-2-(((tetrahydrofuran-2-yl)methoxy)methyl)quinoline-6-carboxamide] | 20 nM | 77 nM
9 | Cc1ccc(NC(=O)c2ccc3c(c2)OCCO3)cc1NC(=O)c1ccc2nccc(C#N)c2c1 [Example 24, 4-cyano-N-(5-(2,3-dihydrobenzo[b][1,4]dioxine-6-carboxamido)-2-methylphenyl)quinoline-6-carboxamide] | 169 nM | 174 nM
10 | Cc1ccc(NC(=O)c2ccc3c(c2)OCCO3)cc1NC(=O)c1cnc2c(c1)CCCC2 [Example 141, N-(5-(2,3-dihydrobenzo[b][1,4]dioxine-6-carboxamido)-2-methylphenyl)-5,6,7,8-tetrahydroquinoline-3-carboxamide] | 44 nM | 32 nM
11 | COc1c(C)cc(C(=O)Nc2cc(NC(=O)c3ccc4c(c3)OCCO4)ccc2C)cc1C [Example 42, N-(3-(4-methoxy-3,5-dimethylbenzamido)-4-methylphenyl)-2,3-dihydrobenzo[b][1,4]dioxine-6-carboxamide] | 665 nM | 546 nM
12 | Cc1ccc(NC(=O)c2ccc3c(c2)OCCO3)cc1NC(=O)c1ccc2nc(OCCN3CCC3)ccc2c1 [Example 60, 2-(2-(azetidin-1-yl)ethoxy)-N-(5-(2,3-dihydrobenzo[b][1,4]dioxine-6-carboxamido)-2-methylphenyl)quinoline-6-carboxamide] | 13 nM | 16 nM
13 | Cc1ccc(NC(=O)c2ccc3c(c2)OCCO3)cc1NC(=O)c1ccc2c(c1)CCN2 [Example 84, N-(5-(2,3-dihydrobenzo[b][1,4]dioxine-6-carboxamido)-2-methylphenyl)indoline-5-carboxamide] | 95 nM | 184 nM
14 | Cc1ccc(NC(=O)c2ccc3c(c2)OCCO3)cc1NC(=O)c1ccc2cnccc2c1 [Example 46, N-(5-(2,3-dihydrobenzo[b][1,4]dioxine-6-carboxamido)-2-methylphenyl)isoquinoline-6-carboxamide] | 12 nM | 4 nM
15 | Cc1ccc(NC(=O)c2ccc3c(c2)OCCO3)cc1NC(=O)c1ccc2nc(CN3CCN(C)CC3)ccc2c1 [Example 70, N-(5-(2,3-dihydrobenzo[b][1,4]dioxine-6-carboxamido)-2-methylphenyl)-2-((4-methylpiperazin-1-yl)methyl)quinoline-6-carboxamide] | 92 nM | 59 nM
16 | Cc1ccc(NC(=O)c2ccc3c(c2)OCCO3)cc1NC(=O)c1ccc2c(c1)CCCN2C [Example 143, N-(5-(2,3-dihydrobenzo[b][1,4]dioxine-6-carboxamido)-2-methylphenyl)-1-methyl-1,2,3,4-tetrahydroquinoline-6-carboxamide] | 26 nM | 55 nM
17 | Cc1ccc(NC(=O)c2ccc3c(c2)OCCO3)cc1NC(=O)c1cc(F)c2ncccc2c1 [Example 136, N-(5-(2,3-dihydrobenzo[b][1,4]dioxine-6-carboxamido)-2-methylphenyl)-8-fluoroquinoline-6-carboxamide] | 4 nM | 14 nM
18 | Cc1ccc(NC(=O)c2cnc3c(c2)OCCO3)cc1NC(=O)c1ccc2nc(OCCN3CCCC3)ccc2c1 [Example 134, N-(4-methyl-3-(2-(2-(pyrrolidin-1-yl)ethoxy)quinoline-6-carboxamido)phenyl)-2,3-dihydro-[1,4]dioxino[2,3-b]pyridine-7-carboxamide] | 49 nM | 51 nM
19 | Cc1ccc(NC(=O)c2ccc3c(c2)OCCO3)cc1NC(=O)c1ccc2[nH]ncc2c1 [Example 97, N-(5-(2,3-dihydrobenzo[b][1,4]dioxine-6-carboxamido)-2-methylphenyl)-1H-indazole-5-carboxamide] | 32 nM | 59 nM
20 | Cc1ccc(NC(=O)c2ccc3c(c2)OCCO3)cc1NC(=O)c1ccc2nc(N)sc2c1 [Example 91, 2-amino-N-(5-(2,3-dihydrobenzo[b][1,4]dioxine-6-carboxamido)-2-methylphenyl)benzo[d]thiazole-6-carboxamide] | 115 nM | 70 nM
21 | Cc1ccc(NC(=O)c2ccc3c(c2)OCCO3)cc1NC(=O)c1ccc(OCc2cscn2)cc1 [Example 101, N-(4-methyl-3-(4-(thiazol-4-ylmethoxy)benzamido)phenyl)-2,3-dihydrobenzo[b][1,4]dioxine-6-carboxamide] | 59 nM | 122 nM
22 | Cc1ccc(NC(=O)c2ccc3c(c2)OCCO3)cc1NC(=O)c1ccc(OCc2cscn2)nc1 [Example 13, N-(5-(2,3-dihydrobenzo[b][1,4]dioxine-6-carboxamido)-2-methylphenyl)-6-(thiazol-4-ylmethoxy)nicotinamide] | 217 nM | 262 nM
23 | Cc1ccc(NC(=O)c2ccc3c(c2)OCCO3)cc1NC(=O)c1cnc2cnccc2c1 [Example 44, N-(5-(2,3-dihydrobenzo[b][1,4]dioxine-6-carboxamido)-2-methylphenyl)-1,7-naphthyridine-3-carboxamide] | 24 nM | 11 nM
24 | Cc1ccc(NC(=O)c2ccc3c(c2)OCCO3)cc1NC(=O)c1ccc2nc(O[C@@H]3CCN(C)C3)ccc2c1 [Example 49, (R)—N-(5-(2,3-dihydrobenzo[b][1,4]dioxine-6-carboxamido)-2-methylphenyl)-2-((1-methylpyrrolidin-3-yl)oxy)quinoline-6-carboxamide] | 8 nM | 2 nM
25 | Cc1ccc(NC(=O)c2ccc3c(c2)OCCO3)cc1NC(=O)c1ccc(OCc2ccccn2)nc1 [Example 25, N-(5-(2,3-dihydrobenzo[b][1,4]dioxine-6-carboxamido)-2-methylphenyl)-6-(pyridin-2-ylmethoxy)nicotinamide] | 1130 nM | 1610 nM
26 | Cc1ccc(NC(=O)c2ccc3c(c2)OCCO3)cc1NC(=O)c1ccc2nc(N(C)CCN3CCCC3)ccc2c1 [Example 64, N-(5-(2,3-dihydrobenzo[b][1,4]dioxine-6-carboxamido)-2-methylphenyl)-2-(methyl(2-(pyrrolidin-1-yl)ethyl)amino)quinoline-6-carboxamide] | 32 nM | 25 nM
27 | Cc1ccc(NC(=O)c2ccc3c(c2)OCCO3)cc1NC(=O)c1ccc(-n2cccn2)cc1 [Example 107, N-(3-(4-(1H-pyrazol-1-yl)benzamido)-4-methylphenyl)-2,3-dihydrobenzo[b][1,4]dioxine-6-carboxamide] | 227 nM | 295 nM
28 | CNc1ccc2cc(C(=O)Nc3cc(NC(=O)c4ccc5c(c4)OCCO5)ccc3C)ccc2n1 [Example 79, N-(5-(2,3-dihydrobenzo[b][1,4]dioxine-6-carboxamido)-2-methylphenyl)-2-(methylamino)quinoline-6-carboxamide] | 54 nM | 70 nM
29 | Cc1ccc(NC(=O)c2ccc3c(c2)OCCO3)cc1NC(=O)c1ccc2nc(OCCN3CC[C@H](F)C3)ccc2c1 [Example 65, (S)—N-(5-(2,3-dihydrobenzo[b][1,4]dioxine-6-carboxamido)-2-methylphenyl)-2-(2-(3-fluoropyrrolidin-1-yl)ethoxy)quinoline-6-carboxamide] | 7 nM | 29 nM
30 | COCCOc1ccc2cc(C(=O)Nc3cc(NC(=O)c4ccc5c(c4)OCCO5)ccc3C)ccc2n1 [Example 3, N-(5-(2,3-dihydrobenzo[b][1,4]dioxine-6-carboxamido)-2-methylphenyl)-2-(2-methoxyethoxy)quinoline-6-carboxamide] | 29 nM | 7 nM
